Counter-ions that a name gives are not always drawn.
The compounds below were run against T1, recombinant sEH (Homo sapiens, UniProt P34913) (assay: biochemical screening assay for inhibition of soluble epoxide hydrolase (fluorometric, Phome substrate)).
T1 construct: made in house; host or cells: Sf9 insect cells
T1 sequence (P34913 1-555): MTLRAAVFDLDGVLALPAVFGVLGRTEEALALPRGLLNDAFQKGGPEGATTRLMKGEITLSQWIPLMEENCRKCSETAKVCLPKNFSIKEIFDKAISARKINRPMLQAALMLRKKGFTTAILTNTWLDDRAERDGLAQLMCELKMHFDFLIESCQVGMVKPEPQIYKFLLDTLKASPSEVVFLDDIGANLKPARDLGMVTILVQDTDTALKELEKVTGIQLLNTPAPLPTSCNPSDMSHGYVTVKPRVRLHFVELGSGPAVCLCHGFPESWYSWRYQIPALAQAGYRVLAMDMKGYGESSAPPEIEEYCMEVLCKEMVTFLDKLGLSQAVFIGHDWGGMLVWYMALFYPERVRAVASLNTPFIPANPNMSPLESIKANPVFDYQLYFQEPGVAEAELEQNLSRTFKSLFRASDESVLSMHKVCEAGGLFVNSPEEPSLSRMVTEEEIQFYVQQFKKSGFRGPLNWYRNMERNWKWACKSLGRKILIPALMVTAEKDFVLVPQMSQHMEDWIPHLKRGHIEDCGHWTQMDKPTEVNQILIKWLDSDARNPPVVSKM
Experimental: The ability of the compounds of the formula I to inhibit soluble epoxide hydrolase can be determined as follows:
Compounds were tested in a biochemical screening assay using recombinant sEH purified from Sf9 insect cells and an artificial substrate, (3-phenyl-oxiranyl)-acetic acid cyano-(6-methoxy-naphtalen-2-yl)-methyl ester, Phome. The biochemical assay was performed in analogy to a fluorometric method described in the literature (P. D. Jones et al., Anal. Biochem. 2005, 343, 66-75). The assay principle bases on the sEH-catalyzed hydrolysis of an artificial α-cyano-ester substrate. 0-deacetylation liberates a cyanohydrin intermediate that rapidly decomposes to the highly fluorescent 6-methoxy-2-naphtaldehyde. To discriminate sample autofluorescence, the assay was carried out as a kinetic measurement with two time points. The first measurement is performed immediately before addition of the substrate and the second measurement is done after completion of the assay. The assay format is either in 96- or in 384-well format. Details of the assay using a 96-well plate format are described below. 40 μL recombinant sEH enzyme and 5 μL test compound are pre-incubated for 15 minutes at 30° C. Following pre-incubation, the reaction is started by addition of 5 μL Phome. The assay mixture containing 2 nM final sEH concentration, test compound ranging in a concentration from 0.0001-10 μM and 5 μM Phome is incubated for 60 minutes at 30° C.
Fluorescence can be measured with any suitable detector for instance a TECAN Safire or Tecan Ultra at […]. % inhibition of recombinant sEH activity is used for calculation of corresponding IC50 values as illustrated and described in the examples.
The NCBI gene bank reference sequence with the accession number NM_001979 for EPHX2/sEH was applied for recombinant protein production:
The following commercially available materials have been used: • Incubation reagent: 25 mM Hepes (Sigma-Aldrich, Cat. No H-3375), 0.01% bovine albumin (Sigma-Aldrich Cat. No PA9205) • Substrate: 3-Phenyl-oxiranyl)-acetic acid cyano-(6-methoxy-naphtalen-2-yl)-methyl ester, Phome (Biozol Cat. No 10003134) • Microtiter plates: 96-well plates (Greiner Cat. No 655180; Costar Cat. No 3915)

In order of falling IC50:
1. NC[C@H]1CO[C@H]2[C@@H]1OC[C@@H]2NC(=O)NC1CCCCC1 [Example 8, 1-((3S,3aR,6S,6aR)-6-aminomethyl-hexahydro-furo[3,2-b]furan-3-yl)-3-cyclohexyl-urea; trifluoroacetate]  14500 nM
2. O=C(NC1CCCCC1)N(Cc1ccccc1)[C@H]1CO[C@@H]2[C@@H](CO)CO[C@@H]21 [Example 6, 1-benzyl-3-cyclohexyl-1-((3S,3aR,6S,6aR)-6-hydroxymethyl-hexahydro-furo[3,2-b]furan-3-yl)-urea]  8000 nM
3. CN(C)C[C@H]1CO[C@H]2[C@@H]1OC[C@@H]2NC(=O)NC1CCCCC1 [Example 9, 1-cyclohexyl-3-((3S,3aR,6S,6aR)-6-dimethylaminomethyl-hexahydro-furo[3,2-b]furan-3-yl)-urea; trifluoroacetate]  450 nM
4. O=C(NC1CCCCC1)N[C@H]1CO[C@H]2[C@@H]1OC[C@H]2O [Example 1, 1-cyclohexyl-3-((3S,3aR,6R,6aR)-6-hydroxy-hexahydro-furo[3,2-b]furan-3-yl)-urea]  305 nM
5. NC[C@H]1CO[C@H]2[C@@H]1OC[C@@H]2N(Cc1ccccc1)C(=O)NC1CCCCC1 [Example 7, 1-((3S,3aR,6S,6aR)-6-aminomethyl-hexahydro-furo[3,2-b]furan-3-yl)-1-benzyl-3-cyclohexyl-urea; trifluoroacetate]  258 nM
6. O=C(NC1CCCCC1)N[C@H]1CO[C@H]2[C@@H]1OC[C@@H]2Nc1nccs1 [Example 13, 1-Cyclohexyl-3-[(3S,3aR,6S,6aR)-6-(thiazol-2-ylamino)-hexahydro-furo[3,2-b]furan-3-yl]-urea]  167 nM
7. Cc1ccc(S(=O)(=O)O[C@@H]2CO[C@H]3[C@@H]2OC[C@@H]3NC(=O)NC2CCCCC2)cc1 [Example 2, toluene-4-sulfonic acid (3R,3aS,6S,6aR)-6-(3-cyclohexyl-ureido)-hexahydro-furo[3,2-b]furan-3-yl ester]  19 nM
8. O=C(NC1CCCCC1)N[C@H]1CO[C@H]2[C@@H]1OC[C@@H]2SCCO [Example 14, 1-Cyclohexyl-3-[(3S,3aR,6S,6aS)-6-(2-hydroxy-ethylsulfanyl)-hexahydro-furo[3,2-b]furan-3-yl]-urea]  19 nM
9. O=C(NC1CCCCC1)N[C@H]1CO[C@H]2[C@@H]1OC[C@@H]2OC(=O)N1CCOCC1 [Example 4, morpholine-4-carboxylic acid (3S,3aS,6S,6aR)-6-(3-cyclohexyl-ureido)-hexahydro-furo[3,2-b]furan-3-yl ester]  16 nM
10. O=C(NC1CCCCC1)N[C@H]1CO[C@H]2[C@@H]1OC[C@@H]2Oc1ccccn1 [Example 3, 1-cyclohexyl-3-[(3S,3aR,6S,6aS)-6-(pyridin-2-yloxy)-hexahydro-furo[3,2-b]furan-3-yl]-urea]  12 nM
11. O=C(NC1CCCCC1)N[C@H]1CO[C@H]2[C@@H]1OC[C@@H]2Oc1ccc(C(=O)O)cc1 [Example 11, 4-[(3S,3aS,6S,6aR)-6-(3-cyclohexyl-ureido)-hexahydro-furo[3,2-b]furan-3-yloxy]-benzoic acid]  5 nM
12. O=C(NC1CCCCC1)N[C@H]1CO[C@H]2[C@@H]1OC[C@@H]2Oc1c[nH]c2ccccc12 [Example 5, 1-cyclohexyl-3-[(3S,3aR,6S,6aS)-6-(1H-indol-3-yloxy)-hexahydro-furo[3,2-b]furan-3-yl]-urea]  3 nM
13. COC(=O)c1ccc(O[C@H]2CO[C@H]3[C@@H]2OC[C@@H]3NC(=O)NC2CCCCC2)cc1 [Example 10, 4-[(3S,3aS,6S,6aR)-6-(3-cyclohexyl-ureido)-hexahydro-furo[3,2-b]furan-3-yloxy]-benzoic acid methyl ester]  3 nM
14. O=C(NC1CCCCC1)N[C@H]1CO[C@H]2[C@@H]1OC[C@@H]2SC1CCCCC1 [Example 12, 1-cyclohexyl-3-((3S,3aR,6S,6aS)-6-cyclohexylsulfanyl-hexahydro-furo[3,2-b]furan-3-yl)-urea]  1 nM

Source: patent US9540391B2, “Isomannide derivatives as inhibitors of soluble epoxide hydrolase” (SANOFI, priority 2013, dated 2017)
